The target in data set [1] is T1, wtKIT (Homo sapiens, UniProt P10721).
T1 construct: 1888289AM in the reaction mixtures
Put plainly: Caliper biochemical assay, wtKIT. The note with it: Table 6, read-out: KIT Biochemical IC50 avg. In outline:
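Enzyme (5.0 nM wtKIT), 1 μM FAM-labelled peptide, 400 μM ATP and 10 mM MnCl2 in HEPES pH 7.5 with 1% DMSO, incubated 3 h at 25° C. EDTA quench; substrate and phosphoproduct separated by microfluidic electrophoresis and quantified by fluorescence.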

Data set [2] concerns the target T2, PDGFRα (Homo sapiens, UniProt P16234).
T2 construct: purchased Millipore 14-467 (lot 26321_ACTI)
The data set is described as follows: Caliper biochemical assay, PDGFRα. The note with it: Table 6. The method, then: (§1) Enzyme, substrate, and cofactors (ATP and Mn^2+) are combined in a well of a microtiter plate and incubated for 3 hours at 25° C. At the end of the incubation, the reaction is quenched by the addition of an EDTA-containing buffer. Substrate and product are separated electrophoretically using the microfluidic-based LabChip 3000 Drug Discovery System from Caliper Life Sciences* and quantitated by fluorescence intensity.
(§2) The substrate used in the CSF-1R and PDGFRα assay is FAM-[…]-CONH2 (FAM is carboxyfluorescein). Peptide should be >95% purity. The substrate for the KIT assay is FAM-[…]-NH2.
(§3) • 1. To a well of a 384-well plate add 5 μL of 2× enzyme buffer (or control) • 2. Add 100 nL of 100× compound. • 3. Add 5 μL of 2× substrate buffer. • 4. Incubate plate at 25° C. for 3 hours. • 5. Add 10 uL of […]. • 6. Read plate LabChip 3000 Drug Discovery System
(§4) • 3 hours at 25° C. where 100% Inhibitor: No enzyme.

Data set [3] addresses T3, CSF-1R (Homo sapiens, UniProt P07333).
T3 construct: purchased Invitrogen PV3249 (lot 662393N)
The data set is described as follows: Caliper biochemical assay, CSF-1R. The note with it: Table 6. The method, then: as §1, §2, §3, §4

The nature of data set [4]: Kinetic solubility assay. In kind it is physicochemical. The note with it: kinetic solubility, 50 mM PB (pH 7.4), shaken 24 hours at RT. In outline: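 Test compounds from 10 mM DMSO stock were diluted in 50 mM phosphate buffer, pH 7.4, and shaken for 24 h at RT. After PTFE filtration and centrifugation, filtrate concentration was quantified by UPLC-UV/HPLC-UV against a standard curve.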

For data set [5], the target named is T4, BCRP (BCRP-MDCKII monolayer) (Homo sapiens, UniProt Q9UNQ0).
T4 construct: host or cells: MDCKII (canine kidney) cells
T4 sequence (Q9UNQ0 1-655): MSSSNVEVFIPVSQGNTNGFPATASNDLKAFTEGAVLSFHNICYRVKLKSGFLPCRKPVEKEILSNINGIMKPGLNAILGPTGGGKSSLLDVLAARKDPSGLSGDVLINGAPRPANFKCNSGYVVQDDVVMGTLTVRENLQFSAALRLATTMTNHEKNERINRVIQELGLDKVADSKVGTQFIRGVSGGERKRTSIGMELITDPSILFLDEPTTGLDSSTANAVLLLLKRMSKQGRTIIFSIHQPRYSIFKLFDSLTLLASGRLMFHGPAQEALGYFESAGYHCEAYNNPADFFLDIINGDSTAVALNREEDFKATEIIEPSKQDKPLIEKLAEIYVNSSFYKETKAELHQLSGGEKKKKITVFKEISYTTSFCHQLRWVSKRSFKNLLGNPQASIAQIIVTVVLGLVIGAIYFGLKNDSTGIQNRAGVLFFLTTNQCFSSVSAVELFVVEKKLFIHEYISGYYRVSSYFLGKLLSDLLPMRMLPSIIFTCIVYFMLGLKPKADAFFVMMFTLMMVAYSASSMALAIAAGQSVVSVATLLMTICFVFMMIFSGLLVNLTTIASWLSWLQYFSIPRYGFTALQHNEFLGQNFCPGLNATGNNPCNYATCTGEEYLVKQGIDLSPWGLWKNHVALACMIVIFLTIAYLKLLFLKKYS
Put plainly: MDCKII-BCRP bidirectional transport assay. The note with it: for MDCK-BCRP: Papp A-B: apical to basolateral. It counts as in vitro ADME. Here is the method: Exemplary compounds were tested for cell permeability in Caco-2, MDCKII-MDR1 and MDCKII-BCRP cell lines with efflux transporter engagement inferred from the efflux ratios determined. Procedures and results are described below. […] This feature of certain compounds is in part due to efflux transporter engagement. See, for instance, exemplary such compounds included in data tables below.
The reference compound Teriflunomide and test compounds are tested in the bidirectional assay. Test compound and reference compounds incubations were tested in duplicates.
The transport assay can be performed between days 12 to day 15 using ready to use PreadyPort™ BCRP-MDCKII monolayer in 96 well plate.
The medium was aspirated from the apical and basal compartments and 75 and 235 μL assay buffer was added to each of the 96 wells of apical and basal compartments of the PreadyPort™ plate.
The plates were pre-incubated for 15 min at 37° C. with 5% CO2 in humidified atmosphere. After preincubation the assay buffer was removed from the apical and basal inserts of the plate.
In apical to basolateral (A→B) transport, 75 μL of test or reference compound working solution to apical inserts and 235 μL of blank assay buffer were added to the corresponding basal compartments.
In basolateral to apical transport, 235 μL of test or reference compound working solution to the basal compartments and 75 μL of blank assay buffer solution were added to corresponding apical inserts.
The sandwich plate was incubated for 120 min in incubator at 5% CO2 and 37° C.
After incubation, 60 μL was transferred from receiver and donor compartments to collection plate.
For donor and C0 samples 20-fold dilution was accomplished by mixing 60 μL of collected sample with 1140 μL of transport buffer and from that solution aliquot 60 μL transfer Both receiver and donor samples were processed by adding […] of acetonitrile containing internal standard (60 μL of sample+240 μL of acetonitrile containing glyburide as internal standard, 125 ng/mL) and vortexing the samples. The compound concentration was measured in all samples using respective calibration standards by LC-MS/MS.
Calculate the Papp and recovery using the given formula:
[formula] [formula] • Where: dQ/dt=Permeability rate in μM/see • C0=Initial concentration in μM • A=Membrane surface area (0.33 cm^2) • V=Volume of receiver chamber • Cend, a=concentration in acceptor well at end of incubation • Cend, d=concentration in donor well at end of incubation • CHBSS=loading concentration measured in HBSS

Data set [6] deals with T1, wtKIT. Put plainly: HTRF biochemical assay, wtKIT (phosphorylation of a peptide substrate). The note with it: Table 4. In outline: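 wtKIT (5.0 nM) phosphorylating 1 µM FAM-labelled peptide with 400 µM ATP and 10 mM MnCl2 in 100 mM HEPES pH 7.5, 1% DMSO, 3 h at 25 °C. EDTA quench; phosphopeptide detected with anti-phosphotyrosine antibody by HTRF. Enzyme titrated for 10-20% substrate conversion.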
For orientation: TR-FRET usually uses a lanthanide donor and a delayed reading to cut background.

Molecules are shown by their SMILES. Bounds are passed on as bounds.

T3 sequence (P07333 20-972): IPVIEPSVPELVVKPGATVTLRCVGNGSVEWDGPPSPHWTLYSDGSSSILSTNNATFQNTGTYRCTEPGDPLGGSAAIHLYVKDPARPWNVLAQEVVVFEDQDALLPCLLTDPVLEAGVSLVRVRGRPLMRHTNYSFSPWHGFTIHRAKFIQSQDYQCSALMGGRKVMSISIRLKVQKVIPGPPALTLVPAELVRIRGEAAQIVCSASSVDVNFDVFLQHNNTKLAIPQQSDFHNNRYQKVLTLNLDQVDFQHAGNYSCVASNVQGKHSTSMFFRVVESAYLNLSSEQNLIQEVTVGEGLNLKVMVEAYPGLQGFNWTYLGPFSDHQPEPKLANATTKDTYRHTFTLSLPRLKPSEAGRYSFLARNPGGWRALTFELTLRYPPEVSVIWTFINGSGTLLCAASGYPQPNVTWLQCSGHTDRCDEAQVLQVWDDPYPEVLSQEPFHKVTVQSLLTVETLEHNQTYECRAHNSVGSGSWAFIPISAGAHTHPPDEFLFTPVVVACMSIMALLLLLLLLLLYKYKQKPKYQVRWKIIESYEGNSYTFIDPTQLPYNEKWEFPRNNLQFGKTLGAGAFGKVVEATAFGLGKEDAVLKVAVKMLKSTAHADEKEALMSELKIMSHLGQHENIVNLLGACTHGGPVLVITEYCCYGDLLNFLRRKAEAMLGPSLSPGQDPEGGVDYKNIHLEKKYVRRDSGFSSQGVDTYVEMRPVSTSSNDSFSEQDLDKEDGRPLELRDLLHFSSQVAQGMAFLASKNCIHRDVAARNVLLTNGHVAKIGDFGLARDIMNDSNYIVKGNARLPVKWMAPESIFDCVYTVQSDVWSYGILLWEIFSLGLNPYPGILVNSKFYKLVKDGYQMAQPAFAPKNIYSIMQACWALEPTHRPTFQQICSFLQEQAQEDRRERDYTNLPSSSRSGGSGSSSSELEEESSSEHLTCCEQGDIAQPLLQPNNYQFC
T1 sequence (P10721 26-976): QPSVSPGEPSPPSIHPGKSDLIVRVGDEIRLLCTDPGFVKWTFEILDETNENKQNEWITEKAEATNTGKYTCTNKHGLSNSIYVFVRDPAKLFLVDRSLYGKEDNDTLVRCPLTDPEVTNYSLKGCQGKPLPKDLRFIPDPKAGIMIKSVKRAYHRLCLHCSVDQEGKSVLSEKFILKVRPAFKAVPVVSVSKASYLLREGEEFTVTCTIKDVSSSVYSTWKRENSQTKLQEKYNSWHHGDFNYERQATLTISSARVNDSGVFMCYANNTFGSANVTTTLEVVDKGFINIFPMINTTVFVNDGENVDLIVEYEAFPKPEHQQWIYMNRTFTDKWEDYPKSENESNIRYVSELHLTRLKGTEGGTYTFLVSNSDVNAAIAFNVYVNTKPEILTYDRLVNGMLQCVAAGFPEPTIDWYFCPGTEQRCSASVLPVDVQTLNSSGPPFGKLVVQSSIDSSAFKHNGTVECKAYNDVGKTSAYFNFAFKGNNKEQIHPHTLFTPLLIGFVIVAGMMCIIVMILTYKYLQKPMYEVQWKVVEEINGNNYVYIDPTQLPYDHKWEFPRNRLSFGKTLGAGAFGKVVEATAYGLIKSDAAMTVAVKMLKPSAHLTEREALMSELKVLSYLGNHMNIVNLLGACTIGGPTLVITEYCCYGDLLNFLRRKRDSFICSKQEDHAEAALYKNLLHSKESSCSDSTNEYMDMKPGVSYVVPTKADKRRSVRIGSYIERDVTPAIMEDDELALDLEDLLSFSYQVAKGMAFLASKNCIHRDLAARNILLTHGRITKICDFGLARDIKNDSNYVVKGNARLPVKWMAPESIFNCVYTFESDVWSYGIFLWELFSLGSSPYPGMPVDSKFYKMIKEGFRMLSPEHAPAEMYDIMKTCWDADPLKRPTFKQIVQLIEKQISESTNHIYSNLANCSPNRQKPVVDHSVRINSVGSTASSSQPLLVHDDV
T2 sequence (P16234 24-1089): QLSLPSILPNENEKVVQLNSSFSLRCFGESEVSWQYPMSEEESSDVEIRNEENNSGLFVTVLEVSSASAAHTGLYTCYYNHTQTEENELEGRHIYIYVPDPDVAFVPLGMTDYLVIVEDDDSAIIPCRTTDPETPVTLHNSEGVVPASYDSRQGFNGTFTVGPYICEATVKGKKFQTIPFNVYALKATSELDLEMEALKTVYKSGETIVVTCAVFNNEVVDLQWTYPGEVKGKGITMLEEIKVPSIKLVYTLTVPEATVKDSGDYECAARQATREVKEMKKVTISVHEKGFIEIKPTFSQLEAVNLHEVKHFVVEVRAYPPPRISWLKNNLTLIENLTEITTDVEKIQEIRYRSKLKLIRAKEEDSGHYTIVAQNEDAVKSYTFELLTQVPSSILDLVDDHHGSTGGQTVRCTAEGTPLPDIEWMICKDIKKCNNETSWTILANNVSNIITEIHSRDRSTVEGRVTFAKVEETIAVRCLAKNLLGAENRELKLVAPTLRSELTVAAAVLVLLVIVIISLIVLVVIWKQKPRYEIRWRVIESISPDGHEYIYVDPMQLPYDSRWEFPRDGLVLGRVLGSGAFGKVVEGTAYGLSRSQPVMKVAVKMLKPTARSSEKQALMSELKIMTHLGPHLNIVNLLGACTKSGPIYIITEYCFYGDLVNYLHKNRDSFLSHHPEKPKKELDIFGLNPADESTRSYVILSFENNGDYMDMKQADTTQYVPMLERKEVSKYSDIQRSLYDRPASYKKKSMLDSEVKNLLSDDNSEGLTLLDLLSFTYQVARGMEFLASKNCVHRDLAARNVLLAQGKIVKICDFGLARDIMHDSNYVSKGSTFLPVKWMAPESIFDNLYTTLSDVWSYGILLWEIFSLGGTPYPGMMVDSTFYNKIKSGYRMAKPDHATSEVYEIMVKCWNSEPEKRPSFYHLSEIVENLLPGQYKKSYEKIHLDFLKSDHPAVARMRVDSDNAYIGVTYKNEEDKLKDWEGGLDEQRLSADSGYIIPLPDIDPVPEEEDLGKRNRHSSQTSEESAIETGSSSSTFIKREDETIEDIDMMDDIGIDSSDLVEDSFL

For orientation: IC50 means the midpoint of a concentration-inhibition curve. Regarding `Cc1nc(-c2ccc(C)c(NC(=O)c3cnc4ccc(NCCO)cn34)c2)no1` [Compound I-176], the results for the IC50 in data set [1], in data set [2] and in data set [3] were no more than 50 nM, 50 to 500 nM and no more than 50 nM, respectively. Moreover, the “Solubility (μM)” value in data set [4] is “** (a solubility greater than 10 μM and less than or equal to 50 μM)”.

Turning to `Cc1ccc(-c2noc([C@H]3C[C@@H]3F)n2)cc1NC(=O)c1cnc2ccc(N3CCC3)cn12` [Compound I-291], the IC50 was no more than 50 nM in data set [1], 50 to 500 nM in data set [2] and no more than 50 nM in data set [3]. The “Solubility (μM)” value in data set [4] was “*** (a solubility greater than 2 μM and less than or equal to 10 μM)”.

On to `Cc1ccc(-c2noc([C@@H]3CCN3S(=O)(=O)C3CCOCC3)n2)cc1NC(=O)c1cnc2ccccn12` [Compound I-187], for which the IC50 in data set [1], in data set [2] and in data set [3] was 50 to 500 nM each time. The “Solubility (μM)” value in data set [4] was “** (a solubility greater than 10 μM and less than or equal to 50 μM)”.

`Cc1ccc(-c2noc(C3CCN3CCOC(F)(F)F)n2)cc1NC(=O)c1cnc2ccccn12` (racemic) [Compound I-168]: the half-maximal inhibitory concentration (IC50) in data set [1] was no more than 50 nM; in data set [2], 500 to 5000 nM; in data set [3], 50 to 500 nM. Moreover, the “Solubility (μM)” value in data set [4] was “** (a solubility greater than 10 μM and less than or equal to 50 μM)”.

Take `O=C(Nc1cc(-c2noc([C@H]3CC(F)(F)CN3)n2)ccc1Cl)c1cnc2ccccn12` [Compound I-192]: the IC50 in data set [1] is no more than 50 nM; in data set [2], 500 to 5000 nM; in data set [3], 50 to 500 nM. For the same compound, the “Solubility (μM)” value in data set [4] was “**** (a solubility less than or equal to 2 μM)”.

Turning to `COC(=O)CS(=O)(=O)N1CCC1c1nc(-c2ccc(C)c(NC(=O)c3cnc4ccccn34)c2)no1` (stereo not drawn) [Compound I-197], the half-maximal inhibitory concentration (IC50) in data set [1] was no more than 50 nM; in data set [2], 500 to 5000 nM; in data set [3] it was 50 to 500 nM. In data set [4], the “Solubility (μM)” value was “*** (a solubility greater than 2 μM and less than or equal to 10 μM)”.

For the compound `Cc1nc(-c2ccc(C)c(NC(=O)c3cnc4cc(COCC(F)(F)F)ccn34)c2)no1` [Compound I-133], the IC50 in data set [1] is no more than 50 nM; in data set [2], 5000 to 30000 nM; in data set [3] it was 500 to 5000 nM. Moreover, in data set [4], the “Solubility (μM)” value is on record as “**** (a solubility less than or equal to 2 μM)”.

`Cc1ccc(-c2noc(C3CCN3S(C)(=O)=O)n2)cc1NC(=O)c1cnc2ccccn12` (racemic) [Compound I-356]: the IC50 in data set [1] is no more than 50 nM; in data set [2], 500 to 5000 nM; in data set [3], 50 to 500 nM. Also, the “Solubility (μM)” value in data set [4] is “** (a solubility greater than 10 μM and less than or equal to 50 μM)”.

Take `Cc1ccc(-c2noc(C3CC(S(=O)(=O)N(C)C)C3)n2)cc1NC(=O)c1cnc2ccccn12` (stereo not drawn) [Compound I-211]: the IC50 in data set [1] is no more than 50 nM; in data set [6] it was 50 to 500 nM. The “MDCK-BCRP: Efflux Ratio” value in data set [5] came out at 14.1. In data set [5], the “MDCK-BCRP: Papp A-B” value is 1.91 10^−6 cm/s. Besides, the “Solubility (μM)” value in data set [4] is “*** (a solubility greater than 2 μM and less than or equal to 10 μM)”.

Consider `CC(C)(C)OC(=O)N1CC(c2nc(-c3ccc(Br)c(NC(=O)c4cnc5ccccn45)c3)no2)C1` [Compound I-332], for which the IC50 in data set [1] was in the range of 50 to 500 nM. In data set [5], the “MDCK-BCRP: Efflux Ratio” value was 1.75 and the “MDCK-BCRP: Papp A-B” value is 2.63 10^−6 cm/s. Further, in data set [4], the “Solubility (μM)” value is “**** (a solubility less than or equal to 2 μM)”.

As for `Cc1ccc(-c2noc(C3CCN3C(=O)OC(C)(C)C)n2)cc1NC(=O)c1cnc2ccccn12` (racemic) [Compound I-395], in data set [1], the IC50 was 50 to 500 nM. Moreover, in data set [5], the “MDCK-BCRP: Efflux Ratio” value is reported as 3.28 and the “MDCK-BCRP: Papp A-B” value was 19 10^−6 cm/s. Also, the “Solubility (μM)” value in data set [4] is “** (a solubility greater than 10 μM and less than or equal to 50 μM)”.

In the case of `Cc1ccc(-c2noc(C3(C(F)F)CC(F)(F)C3)n2)cc1NC(=O)c1cnc2ccccn12` [Compound I-355], the IC50 in data set [1] is no more than 50 nM. Moreover, in data set [5], the “MDCK-BCRP: Efflux Ratio” value is 0.91 and the “MDCK-BCRP: Papp A-B” value is 12.3 10^−6 cm/s. The “Solubility (μM)” value in data set [4] is recorded as “**** (a solubility less than or equal to 2 μM)”.

For `COC1CC(c2nc(-c3ccc(C)c(NC(=O)c4cnc5ccccn45)c3)no2)C1` (stereo not drawn) [Compound I-350], the IC50 in data set [1] was no more than 50 nM. For the same compound, in data set [5], the “MDCK-BCRP: Efflux Ratio” value worked out at 1.52 and the “MDCK-BCRP: Papp A-B” value is 8.86 10^−6 cm/s. Besides, the “Solubility (μM)” value in data set [4] is “** (a solubility greater than 10 μM and less than or equal to 50 μM)”.

For `Cc1ccc(-c2noc(C3(C)CC(F)(F)C3)n2)cc1NC(=O)c1cnc2ccccn12` [Compound I-385], the IC50 in data set [1] was no more than 50 nM. Also, in data set [5], the “MDCK-BCRP: Efflux Ratio” value is on record as 1.05 and the “MDCK-BCRP: Papp A-B” value is recorded as 14.3 10^−6 cm/s. Further, in data set [4], the “Solubility (μM)” value is “**** (a solubility less than or equal to 2 μM)”.

As to `COC(=O)N1CC(c2nc(-c3ccc(C)c(NC(=O)c4cnc5ccc(OC[C@H](C)O)cn45)c3)no2)C1` [Compound I-246], in data set [1], the IC50 was no more than 50 nM. In data set [5], the “MDCK-BCRP: Efflux Ratio” value was determined as 16.9 and the “MDCK-BCRP: Papp A-B” value is given as 1.81 10^−6 cm/s. In addition, the IC50 in data set [6] was 50 to 500 nM. Also, the “Solubility (μM)” value in data set [4] is “**** (a solubility less than or equal to 2 μM)”.

Turning to `Cc1ccc(-c2noc(C3(C)CC(F)C3)n2)cc1NC(=O)c1cnc2ccccn12` (stereo not drawn) [Compound I-386], the IC50 in data set [1] was no more than 50 nM. Also, in data set [5], the “MDCK-BCRP: Efflux Ratio” value was determined as 1.56 and the “MDCK-BCRP: Papp A-B” value is 11.4 10^−6 cm/s. In addition, in data set [4], the “Solubility (μM)” value is “**** (a solubility less than or equal to 2 μM)”.

Values taken from patent US20240254119A1 (THIRD HARMONIC BIO, INC., priority 2022, published 2024).
